According to patent US5945436A, “Pyridylmethyl nitriles, amides and thioamides useful as fungicides” (Uniroyal Chemical Company, Inc., priority 1997, dated 1999):

Legend:
Fusarium oxysporum = assay: Fungal growth inhibition, treated disc on agar (FUS OXY); assay type: cell-based; conditions: disc dipped in 500 mg/l, 29° C.; for inhibition at 500 µg/mL: Fusarium oxysporum, read-out: Percent Growth Inhibition, FUS OXY
Erysiphe graminis [1] = assay: Powdery mildew of barley, systemic root uptake (BMS); assay type: in vivo; conditions: 45 ml of 250 mg/l, 8 days after inoculation
Method: Compositions containing Compounds Nos. 1-81 were prepared by dissolving 0.24 grams of each of the compounds in 8 ml of acetone or other suitable inert solvent. Each of the resultant solutions was treated with 3 drops of TWEEN 20 (ethoxylated ethylene sorbitan monolaurate, a non-ionic surfactant)(I.C.I.), and water was added to form an emulsion. The degree of dilution with water was dictated by the desired concentration of the compound in the composition. The greater the quantity of water added, the lower the concentration of the compound in the composition, reported in milligrams per liter (mg/l) […] Upon reaching these ages, the plants were either treated with 45 ml of 250 mg/l concentration of the compositions of Example 9 or were left untreated. The untreated plants were used as controls. The 45 ml compositions saturated the soil of the treated pots without significant loss through drainage into the saucers below the pots. Twenty-four hours after the treatment with the compositions, both the barley and cucumber plants in all the pots, those treated and those untreated, were inoculated with powdery mildew fungus. This was accomplished by tapping leaves of previously infected barley and cucumber plants over the treated and untreated pots containing the barley and cucumber plants, respectively, to distribute spores of the fungus over the plants tested. […] Intermediate ratings were assigned depending on the degree of disease. […] The results of the powdery mildew disease control of barley are reported under the heading of "BMS". The results for cucumber mildew control are reported under the heading "CMS".

Uromyces phaseoli = assay: Bean rust fungus eradicant test (URO PHA); assay type: in vivo; conditions: pinto bean, eradicant spray 2 days after inoculation, 1,000 mg/l; for pest or weed control at 1000 µg/mL: Uromyces phaseoli, 216 h, read-out: Percent Reduction of Disease, URO PHA
Method: Compositions containing Compounds Nos. 1-81 were prepared by dissolving 0.24 grams of each of the compounds in 8 ml of acetone or other suitable inert solvent. Each of the resultant solutions was treated with 3 drops of TWEEN 20 (ethoxylated ethylene sorbitan monolaurate, a non-ionic surfactant)(I.C.I.), and water was added to form an emulsion. The degree of dilution with water was dictated by the desired concentration of the compound in the composition. The greater the quantity of water added, the lower the concentration of the compound in the composition, reported in milligrams per liter (mg/l) A plurality of pots were each planted with two pinto bean plants, Phaseolus vulgaris, each, susceptible to rust disease. When the plants were 7 days old, at the primary leaf stage of growth, they were all sprayed with a suspension containing 20,000 spores of the bean rust fungus, Uromyces phaseoli, per ml. All the pots were then incubated in a controlled environmental chamber, maintained at 99% humidity and 21° C., for 24 hours to allow infection to occur. The plants were then removed from the incubator and allowed to dry. Two days after inoculation each of the infected plants was then either sprayed with one of the compositions of Example 9, at a dosage of 1,000 mg/l, or left unsprayed. The unsprayed plants acted as controls. All of the sprayed and unsprayed plants were then placed in a greenhouse at 21° C. for nine days to allow the disease to develop. […] Control of disease was determined by comparing treated plants with the untreated controls. The results, expressed as percent reduction of disease, are summarized in Table II under the heading "URO PHA".

Pyricularia oryzae = assay: whole plant or invertebrate; assay type: in vivo; conditions: for pest or weed control at 1000 µg/mL: Pyricularia oryzae, in Hordeum vulgare, foliar, 216 h, read-out: Percent Reduction of Disease, PYR ORY, barley, foliar, 1,000 mg/l
Helminthosporium sativum = assay: Barley spot blotch, foliar treatment (HEL SAT); assay type: in vivo; conditions: foliar, 1,000 mg/l; for pest or weed control at 1000 µg/mL: Helminthosporium, foliar, 216 h, read-out: Percent Reduction of Disease, HEL SAT
Method: Compositions containing Compounds Nos. 1-81 were prepared by dissolving 0.24 grams of each of the compounds in 8 ml of acetone or other suitable inert solvent. Each of the resultant solutions was treated with 3 drops of TWEEN 20 (ethoxylated ethylene sorbitan monolaurate, a non-ionic surfactant)(I.C.I.), and water was added to form an emulsion. The degree of dilution with water was dictated by the desired concentration of the compound in the composition. The greater the quantity of water added, the lower the concentration of the compound in the composition, reported in milligrams per liter (mg/l) Ten plants of six day-old Barley (variety "Robust") were planted in each of a plurality of pots. Each pot was then either sprayed with one of the compositions of Example 9, at a concentration of 1,000 mg/l, or left unsprayed. The unsprayed plants were used as controls. An equal number of pots were sprayed and unsprayed. All plants, sprayed and unsprayed, were thereafter inoculated with spores of the blotch fungus Helminthosporium sativum. All inoculated plants were placed in a 99% humidity chamber for 24 hours and then placed in a greenhouse, maintained at a temperature of 21° C., for eight days. […] Percent control was computed and the results are summarized in Table II under the heading "HEL SAT".

Rhizoctonia solani = assay: Fungal growth inhibition, treated disc on agar (RHI SOL); assay type: cell-based; conditions: disc dipped in 500 mg/l, 29° C.; for inhibition at 500 µg/mL: Rhizoctonia solani, read-out: Percent Growth Inhibition, RHI SOL
Description: (§1) Filter paper discs, each 11 mm. in diameter, were dipped in each of the test solutions. The discs were allowed to air dry to drive off the acetone solvent. A number of untreated discs were used as controls.
(§2) The treated and untreated discs were then placed on agar plates and one of the following fungus species: Septoria nodorum (SEP NOD), Botrytis cinerea (BOT CIN), Fusarium oxysporum (FUS OXY), Pythium ultimum (PYT ULT), Rhizoctonia solani (RHI SOL), Colletotrichum gossypii (COL GOS), and Scierotinia minor (SCL MIN), was added to the center of each disc in the form of a culture plug with the fungus mat in contact with the paper of the test disc. Cercosporidium personatum (CER PER), was added to discs as a spore suspension (20,000 spores/ml) to the disc (two drops of spore suspension per disc), rather than a mycelial culture plug. The plates were then incubated at 29° C. in an oven.
(§3) With the exception of the discs containing Cercosporidium personatum, the discs were evaluated by first measuring the radius from the center of the fungus colony on the treated discs and on the untreated discs. Percent growth inhibition of each of the compounds tested was determined as a function of the difference between the radius of the fungus colony on the treated disc versus the radius of the fungus colony on the untreated disc.

Pythium ultimum = assay: Fungal growth inhibition, treated disc on agar (PYT ULT); assay type: cell-based; conditions: disc dipped in 500 mg/l, 29° C.; for inhibition at 500 µg/mL: Globisporangium ultimum, read-out: Percent Growth Inhibition, PYT ULT
Description: as §1, §2, §3

Scierotinia minor = assay: Fungal growth inhibition, treated disc on agar (SCL MIN); assay type: cell-based; conditions: disc dipped in 500 mg/l, 29° C.; for inhibition at 500 µg/mL: read-out: Percent Growth Inhibition, SCL MIN
Erysiphe graminis [2] = assay: Powdery mildew in barley, foliar application (ERY GRA); assay type: in vivo; conditions: foliar, 1,000 mg/l, 8 days after inoculation; for pest or weed control at 1000 µg/mL: Blumeria graminis, foliar, 192 h, read-out: Percent Reduction of Disease, ERY GRA
Method: Compositions containing Compounds Nos. 1-81 were prepared by dissolving 0.24 grams of each of the compounds in 8 ml of acetone or other suitable inert solvent. Each of the resultant solutions was treated with 3 drops of TWEEN 20 (ethoxylated ethylene sorbitan monolaurate, a non-ionic surfactant)(I.C.I.), and water was added to form an emulsion. The degree of dilution with water was dictated by the desired concentration of the compound in the composition. The greater the quantity of water added, the lower the concentration of the compound in the composition, reported in milligrams per liter (mg/l) Ten plants of "Robust" variety barley were planted in each of a plurality of pots. Each pot was then either sprayed with one of the compositions of Example 9, at a composition concentration of 1,000 mg/l, or left unsprayed. For each pot sprayed, one pot was left unsprayed as a control. After the leaves of the sprayed pots were dried, the sprayed pots and the unsprayed control pots were placed in a greenhouse maintained at 21° C. All the pots were then inoculated with barley powdery mildew fungus, Erysiphe graminis. This inoculation was accomplished by distributing spores of the fungus over the leaves of the plants to be tested from plants which had previously been infected with the mildew disease. […] Again, percent control was computed by comparing the treatment scores with the scores of the untreated controls. The results are summarized in Table II under the heading "ERY GRA".

| SMILES | inhibition at 500 µg/mL (Fusarium oxysporum) [%] | Percent Reduction of Disease, BMS (Erysiphe graminis [1]) [%] | pest or weed control at 1000 µg/mL (Uromyces phaseoli) [%] | pest or weed control at 1000 µg/mL (Pyricularia oryzae) [%] | pest or weed control at 1000 µg/mL (Helminthosporium sativum) [%] | inhibition at 500 µg/mL (Rhizoctonia solani) [%] | inhibition at 500 µg/mL (Pythium ultimum) [%] | inhibition at 500 µg/mL (Scierotinia minor) [%] | pest or weed control at 1000 µg/mL (Erysiphe graminis [2]) [%] | Percent Growth Inhibition, FUS OXY (Fusarium oxysporum) [%] | Percent Reduction of Disease, URO PHA (Uromyces phaseoli) [%] | Percent Reduction of Disease, PYR ORY (Pyricularia oryzae; barley, foliar, 1,000 mg/l) [%] | Percent Reduction of Disease, HEL SAT (Helminthosporium sativum) [%] | Percent Growth Inhibition, RHI SOL (Rhizoctonia solani) [%] | Percent Growth Inhibition, PYT ULT (Pythium ultimum) [%] | Percent Growth Inhibition, SCL MIN (Scierotinia minor) [%] | Percent Reduction of Disease, ERY GRA (Erysiphe graminis [2]) [%] |
| --- | --- | --- | --- | --- | --- | --- | --- | --- | --- | --- | --- | --- | --- | --- | --- | --- | --- |
| CCCC(C#N)(CCc1ccc(F)cc1)c1cccnc1 (stereo not drawn) [Compound 10] | 97 | 84 | 100 | 70 | 100 | 96 | 40 | 100 | 100 | – | – | – | – | – | – | – | – |
| CCCCC(C#N)(CCc1ccc(F)cc1)c1cccnc1 (stereo not drawn) [Compound 11] | 10 | 74 | 100 | 85 | 100 | 98 | 40 | 98 | 100 | – | – | – | – | – | – | – | – |
| CCCC(C#N)(CCCc1ccc(Cl)cc1)c1cccnc1 (stereo not drawn) [Compound 12] | 80 | 40 | 100 | 85 | 100 | 98 | 90 | 92 | 100 | – | – | – | – | – | – | – | – |
| CCCCC(C#N)(CCCc1ccc(Cl)cc1)c1cccnc1 (stereo not drawn) [Compound 13] | 60 | 40 | 100 | 85 | 100 | 100 | 10 | 94 | 100 | – | – | – | – | – | – | – | – |
| CCCC(C#N)(Cc1ccc(C(C)(C)C)cc1)c1cccnc1 (stereo not drawn) [Compound 14] | 25 | 0 | 33 | 100 | 60 | 5 | 10 | 5 | 100 | – | – | – | – | – | – | – | – |
| CCCC(C#N)(CCCc1ccccc1Cl)c1cccnc1 (stereo not drawn) [Compound 15, 2-chloro-α-propyl-(3-pyridinyl)benzene pentanenitrile] | 95 | 0 | 83 | 85 | 100 | 98 | 83 | 100 | 100 | – | – | – | – | – | – | – | – |
| CCCCCCC(C#N)(Cc1ccc(C(C)(C)C)cc1)c1cccnc1 (stereo not drawn) [Compound 16] | 5 | 0 | 0 | 20 | 85 | 25 | 45 | 5 | 85 | – | – | – | – | – | – | – | – |
| CCCC(C#N)(Cc1ccc(Oc2ccccc2)cc1)c1cccnc1 (stereo not drawn) [Compound 17] | 60 | 0 | 0 | 70 | 0 | 45 | 45 | 10 | 70 | – | – | – | – | – | – | – | – |
| C=CCC(C#N)(Cc1ccc(C(C)(C)C)cc1)c1cccnc1 (stereo not drawn) [Compound 18] | 50 | 20 | 0 | 85 | 100 | 40 | 40 | 10 | 100 | – | – | – | – | – | – | – | – |
| CCCCC(C#N)(Cc1ccc(C(C)(C)C)cc1)c1cccnc1 (stereo not drawn) [Compound 19] | 100 | 35 | 0 | 35 | 100 | 91 | 93 | 100 | 100 | – | – | – | – | – | – | – | – |
| CCCC(C#N)(CCc1ccccc1)c1ccncc1 (stereo not drawn) [Compound 25] | 63 | 0 | 17 | 0 | 0 | 4 | 0 | 86 | 67 | – | – | – | – | – | – | – | – |
| CCCCC(C#N)(CCc1ccccc1)c1ccncc1 (stereo not drawn) [Compound 26] | 59 | 0 | 0 | 0 | 0 | 4 | 0 | 96 | 50 | – | – | – | – | – | – | – | – |
| C=CCC(C#N)(CCc1ccc(OC)cc1)c1ccccn1 (stereo not drawn) [Compound 28] | – | 0 | – | – | – | – | – | – | – | 100 | 100 | 85 | 100 | 60 | 10 | 96 | 90 |
